Source: ChEMBL document CHEMBL2176953, “Synthesis and evaluation of α-thymidine analogues as novel antimalarials” (J Med Chem, 2012)

These compounds were tested on Plasmodium falciparum (assay: Antimalarial activity against erythrocytic stages of Plasmodium falciparum 3D7 infected in human O positive RBC after 48 hrs by SYBR-green assay). Details: 3D7, 48 h.
Type: functional, organism-based

Compound	EC50 [µM]
CCOC(=O)CCNC(=O)NC[C@H]1O[C@@H](n2cc(C)c(=O)[nH]c2=O)C[C@@H]1O	> 100
Cc1cn([C@@H]2C[C@H](O)[C@@H](CNS(=O)(=O)c3ccc([N+](=O)[O-])cc3)O2)c(=O)[nH]c1=O	> 100
Cc1cn([C@H]2C[C@H](O)[C@@H](CNS(=O)(=O)c3ccc4ccccc4c3)O2)c(=O)[nH]c1=O	> 100
Cc1cn([C@@H]2C[C@H](O)[C@@H](CNC(=O)Nc3cccnc3)O2)c(=O)[nH]c1=O	> 100
Cc1cn([C@@H]2C[C@H](O)[C@@H](CNC(=O)c3ccc4ccccc4c3)O2)c(=O)[nH]c1=O	> 100
Cc1cn([C@H]2C[C@H](O)[C@@H](CNC(=O)Nc3cccnc3)O2)c(=O)[nH]c1=O	> 100
Cc1cn([C@H]2C[C@H](O)[C@@H](CNC(=O)Nc3cccc4ccccc34)O2)c(=O)[nH]c1=O	> 100
Cc1cn([C@H]2C[C@H](O)[C@@H](CNC(=O)Nc3ccc(Br)cc3)O2)c(=O)[nH]c1=O	30
Cc1cn([C@H]2C[C@H](O)[C@@H](CNC(=O)Nc3ccc([N+](=O)[O-])cc3)O2)c(=O)[nH]c1=O	69
Cc1cn([C@@H]2C[C@H](O)[C@@H](CNC(=O)Nc3ccc(OCc4ccc(C(C)(C)C)cc4)cc3)O2)c(=O)[nH]c1=O	1.8
Cc1cn([C@H]2C[C@H](O)[C@@H](CNC(=O)Nc3ccc(OCc4ccccc4Cl)cc3)O2)c(=O)[nH]c1=O	0.41
Cc1cn([C@H]2C[C@H](O)[C@@H](CNC(=S)Nc3ccc(Cl)c(C(F)(F)F)c3)O2)c(=O)[nH]c1=O	42
Cc1cn([C@H]2C[C@H](O)[C@@H](CNC(=O)Nc3ccccc3Cl)O2)c(=O)[nH]c1=O	> 100
Cc1cn([C@@H]2C[C@H](O)[C@@H](CNC(=O)Nc3ccc(-c4ccc(C(F)(F)F)nc4)cc3)O2)c(=O)[nH]c1=O	1.4
Cc1cn([C@H]2C[C@H](O)[C@@H](CNCc3ccc([N+](=O)[O-])cc3)O2)c(=O)[nH]c1=O	> 100
CCOC(=O)CCNC(=O)NC[C@H]1O[C@H](n2cc(C)c(=O)[nH]c2=O)C[C@@H]1O	> 100
COc1ccccc1NC(=O)NC[C@H]1O[C@H](n2cc(C)c(=O)[nH]c2=O)C[C@@H]1O	44

Compound	EC50 [µM]
Cc1cn([C@H]2C[C@H](O)[C@@H](CNC(=O)Nc3cccc(Cl)c3)O2)c(=O)[nH]c1=O	> 100
Cc1cn([C@@H]2C[C@H](O)[C@@H](CNCc3ccc([N+](=O)[O-])cc3)O2)c(=O)[nH]c1=O	> 100
Cc1cn([C@H]2C[C@H](O)[C@@H](CNC(=O)Nc3ccc(Cl)c(C(F)(F)F)c3)O2)c(=O)[nH]c1=O	114
Cc1cn([C@H]2C[C@H](O)[C@@H](CNC(=O)Nc3ccc(-c4ccccc4)cc3)O2)c(=O)[nH]c1=O	3.3
Cc1cn([C@@H]2C[C@H](O)[C@@H](CNC(=O)Nc3ccc(N4CCN(C)CC4)cc3)O2)c(=O)[nH]c1=O	29
Cc1cn([C@@H]2C[C@H](O)[C@@H](CNC(=S)Nc3ccc(N4CCOCC4)cc3)O2)c(=O)[nH]c1=O	35
Cc1cn([C@H]2C[C@H](O)[C@@H](CNC(=O)c3ccc4ccccc4c3)O2)c(=O)[nH]c1=O	> 100
Cc1cn([C@H]2C[C@H](O)[C@@H](CNS(=O)(=O)c3ccc([N+](=O)[O-])cc3)O2)c(=O)[nH]c1=O	> 100
Cc1cn([C@@H]2C[C@H](O)[C@@H](CNC(=O)Nc3ccccc3Cl)O2)c(=O)[nH]c1=O	36
Cc1cn([C@@H]2C[C@H](O)[C@@H](CNC(=O)Nc3ccccc3)O2)c(=O)[nH]c1=O	23
Cc1cn([C@@H]2C[C@H](O)[C@@H](CNC(=O)Nc3ccccc3-c3ccccc3)O2)c(=O)[nH]c1=O	96
COc1cccc(NC(=O)NC[C@H]2O[C@@H](n3cc(C)c(=O)[nH]c3=O)C[C@@H]2O)c1	> 100
Cc1cn([C@@H]2C[C@H](O)[C@@H](CNC(=O)Nc3ccc([N+](=O)[O-])cc3)O2)c(=O)[nH]c1=O	31
Cc1cn([C@H]2C[C@H](O)[C@@H](CNC(=O)Nc3cccc(COc4ccccc4)c3)O2)c(=O)[nH]c1=O	148
Cc1cn([C@H]2C[C@H](O)[C@@H](CNC(=S)Nc3ccc(Br)cc3)O2)c(=O)[nH]c1=O	172
Cc1ccc2nc(-c3ccc(NC(=O)NC[C@H]4O[C@H](n5cc(C)c(=O)[nH]c5=O)C[C@@H]4O)cc3)sc2c1	4.6

These compounds were tested on MRC5 (assay: Cytotoxicity against human MRC5 cells). Details: not given.
Type: cell-based

Compound	CC50 [µM]
Cc1cn([C@@H]2C[C@H](O)[C@@H](CNC(=O)Nc3ccc(OCc4ccc(C(C)(C)C)cc4)cc3)O2)c(=O)[nH]c1=O	> 50
Cc1cn([C@H]2C[C@H](O)[C@@H](CNC(=O)Nc3ccc(OCc4ccccc4Cl)cc3)O2)c(=O)[nH]c1=O	> 50
Cc1cn([C@@H]2C[C@H](O)[C@@H](CNC(=O)Nc3ccc(-c4ccc(C(F)(F)F)nc4)cc3)O2)c(=O)[nH]c1=O	> 50
Cc1cn([C@H]2C[C@H](O)[C@@H](CNC(=O)Nc3ccc(-c4ccccc4)cc3)O2)c(=O)[nH]c1=O	> 50
Cc1ccc2nc(-c3ccc(NC(=O)NC[C@H]4O[C@H](n5cc(C)c(=O)[nH]c5=O)C[C@@H]4O)cc3)sc2c1	> 50

The compounds below were run against T1, Thymidylate kinase (Plasmodium falciparum (isolate 3D7), UniProt Q8I4S1) (assay: Inhibition of recombinant Plasmodium falciparum TMPK using TMP as substrate by pyruvate kinase and lactate dehydrogenase enzyme coupled assay). Details: not given.
T1 sequence (Q8I4S1 whole entry): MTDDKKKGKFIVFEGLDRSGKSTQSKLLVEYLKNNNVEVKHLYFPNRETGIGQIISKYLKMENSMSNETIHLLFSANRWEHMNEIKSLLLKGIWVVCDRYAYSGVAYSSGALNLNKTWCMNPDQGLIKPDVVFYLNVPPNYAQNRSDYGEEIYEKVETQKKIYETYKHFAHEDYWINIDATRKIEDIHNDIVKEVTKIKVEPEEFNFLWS

Compound	Ki [µM]
CCOC(=O)CCNC(=O)NC[C@H]1O[C@@H](n2cc(C)c(=O)[nH]c2=O)C[C@@H]1O	201
Cc1cn([C@@H]2C[C@H](O)[C@@H](CNS(=O)(=O)c3ccc([N+](=O)[O-])cc3)O2)c(=O)[nH]c1=O	> 1000
Cc1cn([C@H]2C[C@H](O)[C@@H](CNS(=O)(=O)c3ccc4ccccc4c3)O2)c(=O)[nH]c1=O	> 1000
Cc1cn([C@@H]2C[C@H](O)[C@@H](CNC(=O)Nc3cccnc3)O2)c(=O)[nH]c1=O	> 1000
Cc1cn([C@@H]2C[C@H](O)[C@@H](CNC(=O)c3ccc4ccccc4c3)O2)c(=O)[nH]c1=O	541
Cc1cn([C@H]2C[C@H](O)[C@@H](CNC(=O)Nc3cccnc3)O2)c(=O)[nH]c1=O	222
Cc1cn([C@H]2C[C@H](O)[C@@H](CNC(=O)Nc3ccc(Br)cc3)O2)c(=O)[nH]c1=O	15
Cc1cn([C@H]2C[C@H](O)[C@@H](CNC(=O)Nc3ccc([N+](=O)[O-])cc3)O2)c(=O)[nH]c1=O	11
Cc1cn([C@H]2C[C@H](O)[C@@H](CNC(=S)Nc3ccc(Cl)c(C(F)(F)F)c3)O2)c(=O)[nH]c1=O	25
Cc1cn([C@H]2C[C@H](O)[C@@H](CNC(=O)Nc3ccccc3Cl)O2)c(=O)[nH]c1=O	52
Cc1cn([C@H]2C[C@H](O)[C@@H](CNCc3ccc([N+](=O)[O-])cc3)O2)c(=O)[nH]c1=O	742
CCOC(=O)CCNC(=O)NC[C@H]1O[C@H](n2cc(C)c(=O)[nH]c2=O)C[C@@H]1O	> 1000
COc1ccccc1NC(=O)NC[C@H]1O[C@H](n2cc(C)c(=O)[nH]c2=O)C[C@@H]1O	138
Cc1cn([C@H]2C[C@H](O)[C@@H](CNC(=O)Nc3cccc(Cl)c3)O2)c(=O)[nH]c1=O	28
Cc1cn([C@@H]2C[C@H](O)[C@@H](CNCc3ccc([N+](=O)[O-])cc3)O2)c(=O)[nH]c1=O	> 1000
Cc1cn([C@H]2C[C@H](O)[C@@H](CNC(=O)Nc3ccc(Cl)c(C(F)(F)F)c3)O2)c(=O)[nH]c1=O	27
Cc1cn([C@H]2C[C@H](O)[C@@H](CNC(=O)c3ccc4ccccc4c3)O2)c(=O)[nH]c1=O	> 1000
Cc1cn([C@H]2C[C@H](O)[C@@H](CNS(=O)(=O)c3ccc([N+](=O)[O-])cc3)O2)c(=O)[nH]c1=O	> 1000
Cc1cn([C@@H]2C[C@H](O)[C@@H](CNC(=O)Nc3ccccc3Cl)O2)c(=O)[nH]c1=O	205
Cc1cn([C@@H]2C[C@H](O)[C@@H](CNC(=O)Nc3ccccc3)O2)c(=O)[nH]c1=O	166
COc1cccc(NC(=O)NC[C@H]2O[C@@H](n3cc(C)c(=O)[nH]c3=O)C[C@@H]2O)c1	69
Cc1cn([C@@H]2C[C@H](O)[C@@H](CNC(=O)Nc3ccc([N+](=O)[O-])cc3)O2)c(=O)[nH]c1=O	11
Cc1cn([C@H]2C[C@H](O)[C@@H](CNC(=S)Nc3ccc(Br)cc3)O2)c(=O)[nH]c1=O	32
